Assay results published in ChEMBL document CHEMBL5620343, “Advances in the development of phosphodiesterase 7 inhibitors” (Eur J Med Chem, 2023).
≈ marks a conversion by molar mass, not a printed value.

Assays:
[1] = target: T1, Phosphodiesterase 7 (Homo sapiens, UniProt Q13946+Q9NP56); assay: Inhibition of PDE7 (unknown origin) by fluorescent based assay; type: protein assay
[2] = Inhibition of PDE8 (unknown origin) by fluorescent based assay; set-up: species or system Homo sapiens
[3] = target: 3',5'-cyclic-AMP phosphodiesterase 7B (Homo sapiens, UniProt Q9NP56); assay: Inhibition of PDE7B (unknown origin) by 3H-cAMP scintillation proximity assay
[4] = species on record: Homo sapiens; assay: Selectivity index, ratio of IC50 for human PDE4B1 S133D mutant to IC50 for human PDE4D7 S129D mutant
[5] = Selectivity index, ratio of IC50 for inhibition of PDE7A1 (130 to 482 residues) (unknown origin) expressed in Escherichia coli BL21 to IC50 for inhibition of recombinant PDE4D2 (86 to 413 residues) (unknown origin) expressed in Escherichia coli BL21
[6] = Inhibition of human PDE4 catalytic domain expressed in Escherichia coli
[7] = target: T1, Phosphodiesterase 7; assay: Inhibition of full length PDE7 (unknown origin) using FAM-cAMP as substrate by fluorescence based analysis; type: protein assay
[8] = target: T2, High affinity 3',5'-cyclic-AMP phosphodiesterase 7A (Homo sapiens, UniProt Q13946); assay: Inhibition of PDE7A (unknown origin)
[9] = target: Phosphodiesterase 3 (Homo sapiens, UniProt Q14432+Q13370); assay: Inhibition of human recombinant PDE3 expressed in Escherichia coli
[10] = target: T2, High affinity 3',5'-cyclic-AMP phosphodiesterase 7A; assay: Inhibition of recombinant PDE7A1 (unknown origin) expressed in Escherichia coli BL21 using [3H]cAMP as substrate preincubated for 15 mins followed by compound addition and measured after 1 hr by liquid scintillation method
[11] = target: T1, Phosphodiesterase 7; assay: Inhibition of recombinant PDE7 (unknown origin) expressed in Escherichia coli BL21 (DE3) using [3H]cAMP as substrate preincubated for 15 mins followed by compound addition and incubated for 1 hr by liquid scintillation method
[12] = target: T3, Glycogen synthase kinase-3 beta (Homo sapiens, UniProt P49841); assay: Inhibition of GSK-3beta (unknown origin)
[13] = Half life in rat; type: ADME; details: in vivo
[14] = Oral bioavailability in rat; type: ADME, organism-based; details: in vivo
[15] = target: T4, Phosphodiesterase 4 (Homo sapiens, UniProt P27815+Q08499+Q07343+Q08493); assay: Inhibition of human recombinant PDE4; type: protein assay
[16] = target: T3, Glycogen synthase kinase-3 beta; assay: Inhibition of GSK3beta (unknown origin) activity assessed as […] by ADP-Glo Kinase Assay
[17] = Brain to plasma ratio in iv dosed rat measured after 30 mins; type: ADME, organism-based; details: read-out: BPR
[18] = target: 3',5'-cyclic-AMP phosphodiesterase 4B (Homo sapiens, UniProt Q07343); assay: Inhibition of PDE4B1 (unknown origin)
[19] = target: 3',5'-cyclic-AMP phosphodiesterase 4A (Homo sapiens, UniProt P27815); assay: Inhibition of PDE4A1 (unknown origin)
[20] = target: T2, High affinity 3',5'-cyclic-AMP phosphodiesterase 7A; assay: Inhibition of recombinant PDE7A1 (130 to 482 residues) (unknown origin) expressed in Escherichia coli BL21 (DE3) using [3H]cAMP as substrate incubated for 15 mins by liquid scintillation method
[21] = target: T4, Phosphodiesterase 4; assay: Inhibition of PDE4 (unknown origin) by fluorescent based assay; type: protein assay
[22] = Oral bioavailability in mouse at 2.5 mg/kg; type: ADME, organism-based; details: in vivo
[23] = target: 3',5'-cyclic-AMP phosphodiesterase 4D (Homo sapiens, UniProt Q08499); assay: Inhibition of human PDE4D3
[24] = Aqueous solubility of compound in PBS at pH 6.5; type: physicochemical
[25] = target: T1, Phosphodiesterase 7; assay: Inhibition of PDE7 (unknown origin); type: protein assay

T3 sequence (P49841 whole entry): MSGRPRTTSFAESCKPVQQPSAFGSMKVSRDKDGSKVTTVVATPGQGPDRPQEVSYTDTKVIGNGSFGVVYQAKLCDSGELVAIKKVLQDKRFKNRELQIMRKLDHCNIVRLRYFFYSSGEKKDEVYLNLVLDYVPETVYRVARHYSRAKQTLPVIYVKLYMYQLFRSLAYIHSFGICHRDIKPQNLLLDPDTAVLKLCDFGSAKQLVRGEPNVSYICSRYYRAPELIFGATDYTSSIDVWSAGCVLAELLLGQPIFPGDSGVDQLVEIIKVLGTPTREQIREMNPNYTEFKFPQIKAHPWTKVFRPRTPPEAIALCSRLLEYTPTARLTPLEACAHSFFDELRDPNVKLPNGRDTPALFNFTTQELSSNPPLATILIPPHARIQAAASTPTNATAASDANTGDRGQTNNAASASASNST
Chain of 3',5'-cyclic-AMP phosphodiesterase 4D (Q08499 whole entry): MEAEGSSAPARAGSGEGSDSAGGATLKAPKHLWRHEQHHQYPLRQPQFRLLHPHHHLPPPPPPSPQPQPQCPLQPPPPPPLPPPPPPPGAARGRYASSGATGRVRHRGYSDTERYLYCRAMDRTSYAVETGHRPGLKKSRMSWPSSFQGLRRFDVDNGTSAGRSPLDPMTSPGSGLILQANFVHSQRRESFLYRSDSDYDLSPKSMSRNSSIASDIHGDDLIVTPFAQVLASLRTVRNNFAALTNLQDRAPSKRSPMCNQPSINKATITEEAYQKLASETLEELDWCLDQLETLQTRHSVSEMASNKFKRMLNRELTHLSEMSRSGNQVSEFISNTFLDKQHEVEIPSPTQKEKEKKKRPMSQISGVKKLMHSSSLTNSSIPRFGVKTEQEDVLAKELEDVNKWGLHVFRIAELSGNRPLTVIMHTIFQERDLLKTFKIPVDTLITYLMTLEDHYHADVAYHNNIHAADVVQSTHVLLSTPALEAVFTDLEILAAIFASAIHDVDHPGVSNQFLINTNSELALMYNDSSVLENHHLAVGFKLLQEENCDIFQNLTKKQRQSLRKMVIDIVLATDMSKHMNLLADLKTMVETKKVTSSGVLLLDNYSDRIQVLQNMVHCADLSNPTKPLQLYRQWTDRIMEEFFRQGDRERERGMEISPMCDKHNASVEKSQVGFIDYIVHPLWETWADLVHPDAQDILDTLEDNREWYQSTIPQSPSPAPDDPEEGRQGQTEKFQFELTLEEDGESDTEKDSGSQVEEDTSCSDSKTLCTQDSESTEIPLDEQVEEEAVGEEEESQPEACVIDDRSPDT
Chain of 3',5'-cyclic-AMP phosphodiesterase 7B (Q9NP56 whole entry): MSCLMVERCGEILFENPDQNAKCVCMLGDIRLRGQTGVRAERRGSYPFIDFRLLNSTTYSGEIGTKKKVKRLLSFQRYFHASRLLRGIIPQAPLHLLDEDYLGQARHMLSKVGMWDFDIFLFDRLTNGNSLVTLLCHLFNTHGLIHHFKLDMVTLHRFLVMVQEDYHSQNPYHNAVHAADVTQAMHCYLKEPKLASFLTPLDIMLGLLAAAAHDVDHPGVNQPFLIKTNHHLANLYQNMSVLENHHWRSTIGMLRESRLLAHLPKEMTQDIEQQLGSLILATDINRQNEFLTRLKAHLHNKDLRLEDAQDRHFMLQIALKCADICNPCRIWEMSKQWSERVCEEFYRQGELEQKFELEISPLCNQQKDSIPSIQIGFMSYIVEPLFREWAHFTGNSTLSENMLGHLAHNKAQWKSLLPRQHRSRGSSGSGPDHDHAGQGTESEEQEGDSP
T2 sequence (Q13946 whole entry): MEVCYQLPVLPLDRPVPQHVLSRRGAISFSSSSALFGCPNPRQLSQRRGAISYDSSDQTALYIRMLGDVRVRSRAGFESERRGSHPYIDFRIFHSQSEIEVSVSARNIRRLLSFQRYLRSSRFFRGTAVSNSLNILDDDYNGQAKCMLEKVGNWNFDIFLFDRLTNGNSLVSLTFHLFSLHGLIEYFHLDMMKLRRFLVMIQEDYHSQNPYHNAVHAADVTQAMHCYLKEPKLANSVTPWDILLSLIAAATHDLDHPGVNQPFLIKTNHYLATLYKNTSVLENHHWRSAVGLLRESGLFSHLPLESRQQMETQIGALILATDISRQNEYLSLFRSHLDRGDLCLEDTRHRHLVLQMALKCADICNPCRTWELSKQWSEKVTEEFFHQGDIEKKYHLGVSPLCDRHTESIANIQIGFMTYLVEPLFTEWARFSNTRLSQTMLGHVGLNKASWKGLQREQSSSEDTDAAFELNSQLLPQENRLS
Chain of 3',5'-cyclic-AMP phosphodiesterase 4B (Q07343 whole entry): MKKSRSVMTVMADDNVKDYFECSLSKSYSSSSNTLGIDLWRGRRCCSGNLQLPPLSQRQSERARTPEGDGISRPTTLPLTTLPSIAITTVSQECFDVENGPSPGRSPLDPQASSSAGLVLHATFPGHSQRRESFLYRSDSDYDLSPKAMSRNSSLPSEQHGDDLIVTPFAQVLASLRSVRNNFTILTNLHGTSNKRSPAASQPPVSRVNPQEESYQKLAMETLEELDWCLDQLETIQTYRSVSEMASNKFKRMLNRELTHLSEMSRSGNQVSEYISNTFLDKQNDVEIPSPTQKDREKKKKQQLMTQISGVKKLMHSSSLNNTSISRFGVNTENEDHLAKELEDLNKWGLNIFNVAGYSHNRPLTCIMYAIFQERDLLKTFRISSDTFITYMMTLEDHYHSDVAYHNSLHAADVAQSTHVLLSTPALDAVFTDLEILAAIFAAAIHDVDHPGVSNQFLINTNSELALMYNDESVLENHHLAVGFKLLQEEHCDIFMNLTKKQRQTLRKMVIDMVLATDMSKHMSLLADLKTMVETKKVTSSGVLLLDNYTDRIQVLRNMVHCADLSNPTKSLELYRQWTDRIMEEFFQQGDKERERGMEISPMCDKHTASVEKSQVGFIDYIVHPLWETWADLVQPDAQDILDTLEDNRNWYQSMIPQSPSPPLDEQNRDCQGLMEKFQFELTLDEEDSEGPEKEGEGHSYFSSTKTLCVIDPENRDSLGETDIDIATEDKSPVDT
Chain of 3',5'-cyclic-AMP phosphodiesterase 4A (P27815 whole entry, the tested form may be a part): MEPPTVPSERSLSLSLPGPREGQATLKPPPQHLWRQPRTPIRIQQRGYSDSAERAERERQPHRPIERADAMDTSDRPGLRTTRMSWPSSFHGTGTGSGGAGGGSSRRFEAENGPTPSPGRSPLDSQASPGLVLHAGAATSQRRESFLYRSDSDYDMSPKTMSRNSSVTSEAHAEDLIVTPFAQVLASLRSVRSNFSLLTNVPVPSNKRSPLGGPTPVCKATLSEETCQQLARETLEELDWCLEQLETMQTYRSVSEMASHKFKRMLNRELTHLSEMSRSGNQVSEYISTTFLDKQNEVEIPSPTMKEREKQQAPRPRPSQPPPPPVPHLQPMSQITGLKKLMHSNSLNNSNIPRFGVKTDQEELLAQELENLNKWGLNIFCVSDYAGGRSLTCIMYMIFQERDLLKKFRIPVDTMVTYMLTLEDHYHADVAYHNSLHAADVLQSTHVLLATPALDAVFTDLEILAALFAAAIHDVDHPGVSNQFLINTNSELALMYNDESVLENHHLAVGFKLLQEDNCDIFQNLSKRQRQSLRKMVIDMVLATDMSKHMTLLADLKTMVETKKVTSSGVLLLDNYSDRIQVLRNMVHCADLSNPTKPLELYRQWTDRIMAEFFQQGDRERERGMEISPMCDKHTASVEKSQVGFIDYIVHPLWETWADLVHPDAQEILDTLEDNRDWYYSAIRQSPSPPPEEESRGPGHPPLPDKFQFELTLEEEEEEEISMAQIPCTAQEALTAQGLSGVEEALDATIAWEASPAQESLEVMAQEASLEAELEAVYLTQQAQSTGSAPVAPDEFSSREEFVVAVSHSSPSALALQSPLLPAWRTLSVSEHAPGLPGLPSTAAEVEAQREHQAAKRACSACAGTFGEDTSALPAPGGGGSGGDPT

N#Cc1cc(Cn2c(=O)c3cc(OC(CF)CF)ccc3n(C3CCN(C=O)CC3)c2=O)ccc1-c1ccccc1
IC50 [1]: 37 nM
IC50 [2]: 15 nM

Cc1ccc([N+](=O)[O-])cc1S(=O)(=O)N(C)C
IC50 [3]: 620 nM
Ratio IC50 [4]: 238

COc1ccc(C2=NN(C3CCN(C(=O)N4CCOCC4)CC3)C(=O)[C@@H]3CC=CC[C@H]23)cc1Cl
IC50 [3]: 23 nM
Ratio IC50 [5]: 10
IC50 [6]: 2.3 nM

Fc1cc2nc(S)[nH]c(=S)c2cc1F
IC50 [7]: 74 nM

COc1cc(-c2nc(NC3CCCC3)c3ccsc3n2)cc(OC)c1OC
IC50 [7]: 20 nM

CCn1ncc2c(NC3CCOCC3)c(-c3nnc(Cc4sc(C)nc4C)o3)cnc21 [GSK-356278]
IC50 [8]: 0.76 nM
IC50 [9]: 5 nM

COc1ccc(/C(CSc2nc3ccccc3c(=O)n2-c2ccccc2)=N\O)cc1
IC50 [7]: 1150 nM

O=C1Nc2c(Cl)ccc(Oc3ccccc3-c3nnn[nH]3)c2C2(CCCCC2)N1
IC50 [10]: < 0.15 nM

O=C1Nc2c(Cl)cccc2C2(CCCCC2)N1
IC50 [11]: 170 nM

OCC/N=c1/nc(-c2ccccc2)n(-c2ccccc2)s1
IC50 [12]: 1950 nM

CN1CCN(C(=O)c2ccc(-c3cc(Cl)c4c(c3)C3(CCCCC3)NC(=O)N4)cc2)CC1
half-life [13]: 1.5 h
bioavailability [14]: 27%
IC50 [11]: 14 nM
IC50 [15]: 1700 nM

S=c1[nH]c2ccccc2c(=S)n1-c1ccccc1
IC50 [7]: 550 nM

COc1ccc(Cn2c(=O)c3cc(OCC#N)ccc3n(C3CCSCC3)c2=O)cc1OC
IC50 [7]: 5.5 nM

COc1cc(Cn2c(=O)c3cc(OC(CF)CF)ccc3n(C3CCN(C=O)CC3)c2=O)ccc1OCC(=O)N1CCCCC1
IC50 [1]: 46 nM

N=c1nc(-c2ccccc2)n(-c2ccccc2)s1
IC50 [1]: 1020 nM
IC50 [16]: 6300 nM

COc1ccc(C2=NN(C3CCCC3)C(=O)[C@@H]3CC=CC[C@H]23)cc1Cl
Kp at 0.5 h [17]: 1.69
IC50 [8]: 18.6 nM
IC50 [9]: 0.76 nM

CCOC(=O)c1cc2c(=O)n3ccccc3nc2n(C2CCCCC2)/c1=N\C(C)=O
IC50 [18]: 305 nM
IC50 [19]: 112 nM
IC50 [20]: 142 nM

Cn1nc(-c2ccc(Cl)cc2)s/c1=N\C1CCCCC1
IC50 [7]: 1500 nM

COc1ccc(Cn2c(=O)c3cc(OC(CF)CF)ccc3n(C3CCN(C=O)CC3)c2=O)cc1OC
IC50 [1]: 39 nM
IC50 [2]: 140 nM

O=C(Nc1ccc(N2CCOCC2)cc1)c1cn(Cc2c(F)cccc2F)c2cccnc2c1=O
IC50 [21]: 380 nM

CC(C)Cn1c(=O)n(C)c(=O)c2nc[nH]c21 [ISOBUTYLMETHYLXANTHINE]
IC50 [1]: 8100 nM

CN(C)C(=O)CCN(C)C(=O)c1nc2cc(Cl)c3c(c2o1)C1(CCCCC1)NC(=O)N3
IC50 [10]: < 10 nM

COc1cc(CN(Cc2ccc(OC)cc2OC)c2ncnc3c2nnn3C2CC(C(F)(F)F)CCC2(F)F)cc(OC)c1 (stereo not given)
IC50 [21]: 11900 nM
IC50 [7]: < 10 nM

O=C1Nc2c(Cl)cc(-c3ccccc3)cc2C2(CCCCC2)N1
IC50 [11]: 16 nM
IC50 [15]: 1420 nM

CCCCc1nc2c(c(=O)n(C)c(=O)n2C)n1CCCC(=O)Nc1cc(C(C)(C)C)ccc1O
IC50 [18]: 543 nM

COc1ccc(Cn2c(=O)c3cc(OCC#N)ccc3n(C3CC[S+]([O-])CC3)c2=O)cc1OC (stereo not given)
IC50 [7]: 6.1 nM

Cn1nc(-c2ccc(C(N)=O)cc2)s/c1=N\[C@@H]1CCC[C@@H](O)C1
IC50 [10]: 616 nM
bioavailability [22]: 38.5%
IC50 [23]: 88 nM

CCOc1cc2cc(CO)c(CO)c(-c3ccnc(-n4nc(-c5cccnc5)c5ccccc5c4=O)c3)c2cc1OCC
IC50 [3]: 1700 nM
Ratio IC50 [5]: 13
IC50 [6]: 130 nM

Cn1nc(-c2ccc(C(N)=O)cc2)s/c1=N\C1CCCCC1
IC50 [10]: 15300 nM
IC50 [23]: 61 nM

c1ccc(-c2n/c(=N/Cc3cccnc3)sn2-c2ccccc2)cc1
IC50 [1]: 380 nM
IC50 [16]: 1280 nM

CC(C)(C)CSc1nc2ccccc2c(=O)n1-c1ccccc1
IC50 [7]: 100 nM

O=S1(=O)N=C(O)c2ccccc2N1
IC50 [7]: 8000 nM

O=C1Nc2c(Cl)ccc(OCCO)c2C2(CCCCC2)N1
IC50 [7]: 55 nM
IC50 [11]: 55 nM

O=C1Nc2c(Cl)cc3nc(CN4CCNCC4)oc3c2C2(CCCCC2)N1
IC50 [10]: < 10 nM

Br.c1ccc(-c2n/c(=N/CCC3CCOCC3)sn2-c2ccccc2)cc1
IC50 [7]: 1590 nM
IC50 [9]: > 10000 nM

CCOc1ccc(-c2c(C(C)(C)O)oc(=O)c3ccccc23)cc1OC1CCCC1
IC50 [20]: 1400 nM

CCOC(=O)c1sc(Nc2nc(NCc3ccc(S(N)(=O)=O)cc3)c3c(ncn3CC)n2)nc1C
solubility [24]: 5 µg/mL (≈ 9.68 µM)

COc1ccc(-c2cc3c(n2-c2ccc(S(=O)(=O)Nc4nc(C)cc(C)n4)cc2)CCC(N2CCN(C)CC2)C3)cc1C (stereo not given)
IC50 [3]: 14 nM
Ratio IC50 [5]: 45
IC50 [6]: 630 nM

c1ccc(-c2n/c(=N/CCN3CCOCC3)sn2-c2ccccc2)cc1
IC50 [1]: 1590 nM
IC50 [16]: 880 nM

CCn1c(NC(C)C)nc2c(C3CCN(C(=O)c4cccc(C)n4)C3)csc2c1=O (stereo not given)
IC50 [21]: 46 nM
IC50 [25]: 3.3 nM

O=c1c2ccccc2[nH]c(=S)n1-c1ccccc1
IC50 [3]: 8800 nM

CSc1nc2c(C)cccc2c(=O)n1-c1c(F)cccc1F
IC50 [21]: 1400 nM
IC50 [7]: 130 nM

FC(F)(F)c1cc(N2C(=S)Nc3ccccc3C23CCc2ccccc2N3)cc(C(F)(F)F)c1 (stereo not given)
IC50 [10]: < 171 nM

Cn1nc(-c2ccc(Cl)cc2)s/c1=N\c1ccc(F)c(C(=O)O)c1
IC50 [10]: 3970 nM
bioavailability [22]: 49.3%
IC50 [23]: 160 nM
